In PubChem BioAssay AID1996:
In brackets after ≈: the same amount, converted by molar mass.

details: buffer; pH 7.4; 200.0 µM

SMILES | solubility kinetic [mg/mL]
Cc1cccn2cc(-c3cc4ccccc4oc3=O)nc12 | 0.0006 (≈ 2.17 µM)
NC1=NC(=O)/C(=C\c2cccnc2)S1 | > 0.0308
O=C(COC(=O)c1cc(S(=O)(=O)Nc2ccccc2Cl)ccc1O)Nc1ccc(F)c(F)c1F | 0.01 (≈ 19.4 µM)
Cl.Fc1ccc(Nc2ncnc3ccccc23)cc1 | 0.0368
O=C(NCCN1CCOCC1)C(Sc1ccccc1)c1ccccc1 (configuration not stated) | > 0.0535
S=c1[nH]cc(-c2ccccc2)[nH]1 | > 0.0264
O=C(CCCc1ccccc1)N1CCN(C2CCCCC2)CC1 | 0.0466 (≈ 148 µM)
CCOc1ccc(N2CC(C(=O)N3CCCCCC3)CC2=O)cc1 (configuration not stated) | > 0.0496
CC(=O)CCc1oc2c([N+](=O)[O-])cccc2c1-c1ccc(C)o1 | 0.0028 (≈ 8.94 µM)
COc1cccc(N2CCN(c3ccc(S(=O)(=O)N4CCN(C)CC4)cc3[N+](=O)[O-])CC2)c1 | 0.0119 (≈ 25 µM)
O=C(O)CCNc1ccc(Cl)cc1 | > 0.0299
NC1=NC(=Nc2cccc(S(N)(=O)=O)c2)c2ccccc21 | > 0.0451
CC(C)(C)OC(=O)NCCNC(=O)c1cccs1 | > 0.0406
CC1CN(C(=O)CCNC(=O)c2ccc(Cl)cc2)CC(C)O1 (configuration not stated) | 0.0421 (≈ 130 µM)
CN(C)CCn1c(N)nc2ccccc21 | > 0.0306
c1ccc2sc(NCC3CCCO3)nc2c1 (configuration not stated) | > 0.0351
Cc1cccn2c(=O)c(C=O)c(Cl)nc12 | > 0.0334
O=C(c1cnccn1)N1CCN(S(=O)(=O)c2cccc(Cl)c2)CC1 | > 0.055
CCC(C)[C@H](NC(=O)Nc1ccccc1F)C(=O)O (some centres not stated) | > 0.0402
CCNC(=O)NC(=O)C(C)OC(=O)c1cccn1C (configuration not stated) | > 0.0401
OCCNC(=S)Nc1cccc(Cl)c1Cl | > 0.0398
O=S1(=O)c2cccc3cccc(c23)N1CCBr | 0.0177 (≈ 56.7 µM)
CN(C)CCn1c(=S)[nH]c2ncccc2c1=O | 0.0358 (≈ 143 µM)
CCc1cc(C(=O)c2ccc(OC)cc2)c(NC(=O)CN2CCCCC2)s1 | < 0.0004
Cc1ccc(C)c(NC(=O)CN(C)C(=O)c2sccc2C)c1 | > 0.0475

SMILES | solubility kinetic [mg/mL]
OCCCN=C1CCCc2c1[nH]c1ccc(Cl)cc21 | 0.0144 (≈ 52 µM)
COc1ccc(CSc2nc(C)[nH]c2[N+](=O)[O-])cc1[N+](=O)[O-] | 0.0032 (≈ 9.87 µM)
Cc1ccc(-c2cc(C(=O)N3CCCCCC3)no2)cc1 | 0.0013 (≈ 4.57 µM)
O=C(Cc1ccsc1)Nc1ccccc1F | > 0.0353
CCOC(=O)c1cccc(NC(=O)CC2Oc3ccccc3NC2=O)c1 (configuration not stated) | 0.0018 (≈ 5.08 µM)
Cc1onc(-c2ccccc2)c1CNS(=O)(=O)c1ccc(F)cc1F | 0.0516 (≈ 142 µM)
Cc1cccc(C(=O)O/N=C(\N)Cc2cccc3ccccc23)c1 | 0.0023 (≈ 7.22 µM)
Cc1cccc(C)c1NC(=O)CN(C)CC(=O)N1CC(=O)Nc2ccccc21 | > 0.0571
CC(C)N1CCN(Cc2ccc3c(c2)OCCO3)CC1CCO (configuration not stated) | 0.0455 (≈ 142 µM)
Cn1cccc1C(=O)OCC(=O)Nc1ccc2c(c1)OCCO2 | 0.0048 (≈ 15.2 µM)
CC(=O)Nc1sc2c(c1C#N)CCC2 | > 0.0309
CCN(CC)CCCNC(=S)Nc1ccc(Br)cc1 | > 0.0516
CCC(=O)Nc1nc(-c2ccccc2)nc(SC)c1C(C)=O | 0.0004 (≈ 1.27 µM)
CC(C)CCNC(=O)c1cc2c(=O)n3ccccc3nc2s1 | 0.0046 (≈ 14.6 µM)
CC1CCCC(NC(=O)CNC(=O)c2cccs2)C1C (configuration not stated) | > 0.0442
CCCN1CCC(N2CCCC(C(=O)O)C2)CC1.Cl (configuration not stated) | > 0.0491
CCOC(=O)c1cc(C#N)c(SCC(=O)O)[nH]c1=O | 0.0388 (≈ 137 µM)
CCc1cccc(C)c1N1C(=O)CC(C)(C)CC1=O | > 0.0389
Cc1ccc(NS(=O)(=O)c2ccc(NC(=O)C3CC3)cc2)cc1C | 0.0069 (≈ 20 µM)
Cc1oc(-c2cccc(C(F)(F)F)c2)nc1CN1CCC[C@H]1CO | > 0.0511
Cc1ccc(OCCC(=O)OCC(=O)Nc2cc(C)cc(C)c2)cc1 | 0.0043 (≈ 12.6 µM)
COc1ccc2[nH]c(C)c(C(=O)CN(C)CC3OCCO3)c2c1 | 0.0459 (≈ 144 µM)
COc1ccccc1C(=O)NC(=O)Nc1c(C)cc(C)cc1C | 0.0007 (≈ 2.24 µM)
O=C(C1CC1)N1CCN(c2ccc(O)cc2)CC1 | > 0.0369
CCn1c(=O)c2ccccc2n2c(SCC(N)=O)nnc12 | > 0.0455

SMILES | solubility kinetic [mg/mL]
O=C(CC1CC2CCC1C2)NCCc1ccc(Cl)cc1 (configuration not stated) | 0.0297 (≈ 102 µM)
O=C(CSc1nnc2ccccn12)Nc1ccc(N2CCOCC2)cc1 | > 0.0554
CN1C(=O)c2ccc(C(=O)Nc3cccnc3)cc2C1=O | > 0.0422
CCOC(=O)C(=CNc1ccc(Cl)cn1)C(=O)OCC | 0.0012 (≈ 4.02 µM)
CCOc1ncnc2c1sc1nc(C)cc(C)c12 | < 0.0002
N#Cc1c(Nc2ccccc2)c(C=O)c[nH]c1=O | > 0.0359
O=C(COC(=O)COc1ccc(Br)cc1)NCC1CCCO1 (configuration not stated) | > 0.0558
COc1ccc(C(=O)C[N+]2(C)CCOCC2)cc1.[I-] | > 0.0375
CCOC(=O)CSc1nc(C(C)(C)C)nc2ccccc12 | 0.0007 (≈ 2.3 µM)
CCOc1ccc(CN(C)C(=O)CNC(=O)C2CCCCC2)cc1 | > 0.0499
N#C/C=C/N1CCC(Cc2ccccc2)CC1 | 0.0296 (≈ 131 µM)
Brc1ccccc1OCCCCN1CCCCC1 | 0.0391 (≈ 125 µM)
CCOC(=O)C(=CNc1ccc(C#N)cc1)C(=O)OCC | > 0.0432
O=C(COC(=O)c1cc(=O)[nH]c2ccccc12)Nc1ccc(F)cc1F | 0.0137 (≈ 38.2 µM)
Cc1ccc(NC(=O)CCNC(=O)c2ccccc2)cc1F | 0.0029 (≈ 9.66 µM)
COc1ccccc1CNC(=O)c1cc(C)nc2ccccc12 | 0.0418 (≈ 136 µM)
COc1ccccc1NC(=O)CN1CCOCC1 | > 0.0375
Cc1ccc(N2CC(C)Cn3c2nc2c3c(=O)[nH]c(=O)n2C)cc1 (configuration not stated) | 0.0088 (≈ 27 µM)
C=CCn1cnnc1SCC(=O)N(C1CCCCC1)C1CCS(=O)(=O)C1 (configuration not stated) | > 0.0598
COc1ccc(S(=O)(=O)Nc2cc(S(=O)(=O)N3CCOCC3)ccc2OC)cc1 | 0.0373 (≈ 84.3 µM)
COc1ccc2[nH]cc(CCNC(=O)C3CCCCC3)c2c1 | 0.0427 (≈ 142 µM)
COc1ccc(Nc2nc(N)c([N+](=O)[O-])c(NC3CCCCC3)n2)cc1 | 0.0002 (≈ 0.558 µM)
Cc1ccc(C(=O)O)cc1N=Nc1c(O)[nH]c(=O)[nH]c1=O | > 0.0435
Cc1ccccc1NC(=O)NC1CCCc2ccccc21 (configuration not stated) | 0.0009 (≈ 3.21 µM)
S=c1[nH]c2ccccc2n1CCOc1ccccc1 | 0.0202 (≈ 74.7 µM)

SMILES | solubility kinetic [mg/mL]
CC(C)[C@H](NC(=O)c1ccccc1F)C(=O)NC1CCCCCCC1 | 0.0075 (≈ 21.5 µM)
NC(=O)CSc1nccn1Cc1ccc2c(c1)OCO2 | > 0.0437
Cn1c(N)cc(-c2ccc(F)cc2)c(C#N)c1=O | > 0.0365
O=C1Nc2ccccc2/C1=C/c1ccccc1F | 0.0024 (≈ 10 µM)
O=[N+]([O-])c1cnc(Nc2ccc(Cl)cn2)c([N+](=O)[O-])c1 | 0.0018 (≈ 6.09 µM)
CCCNC(=O)Cn1c(=O)n(C)c2ccccc21 | > 0.0371
CCOC(=O)N1c2ccccc2C=CC1OCC (configuration not stated) | 0.008 (≈ 32.4 µM)
Cc1cccc(C)c1NC(=O)CN(C)C(=O)Cn1c(=O)cnc2ccccc21 | 0.0526 (≈ 139 µM)
O=C(O)c1c2c(nc3ccc(Cl)cc13)CCC2 | 0.0321 (≈ 130 µM)
Cc1ccc(N2CC(C(=O)NCc3ccco3)CC2=O)cc1Cl (configuration not stated) | 0.0308 (≈ 92.6 µM)
Cc1cc(C)cc(OCCCn2ccnc2)c1 | 0.0264 (≈ 115 µM)
O=C(CCSCc1cccc(F)c1)NCCc1ccccc1 | 0.0184 (≈ 58 µM)
COc1ccc(C(=O)Nc2ccc(Nc3ccccc3)cc2)cc1OC | < 0.0004
S=C(NCCc1cccc(Cl)c1)NCc1ccccc1 | 0.0149 (≈ 48.9 µM)
CC(C)c1cccc(C(C)C)c1OC(=O)NC(=O)c1c(F)cccc1F | 0.0174 (≈ 48.1 µM)
COc1cc(C2NC(=O)NC(C)=C2C(C)=O)cc(OC)c1OC (configuration not stated) | 0.0387 (≈ 121 µM)
O=C(/C=C/c1ccccc1[N+](=O)[O-])OC1CCCCC1=O (configuration not stated) | 0.0045 (≈ 15.6 µM)
O=C(COc1ccc(Cl)cc1)Nc1ccc2oc(=O)ccc2c1 | < 0.0007
COCC1CCCN(Cc2nc(-c3ccc4c(c3)OCO4)no2)C1 (configuration not stated) | 0.0434 (≈ 131 µM)
O=S(=O)(c1cc(Cl)ccc1Cl)N1CCc2ccccc21 | < 0.0007
O=C(Cc1ccccc1)N/N=C/c1ccc[nH]1 | > 0.0341
O=c1cc(O)c2ccccc2n1Cc1ccccc1 | 0.0319 (≈ 127 µM)
CCN1CCN(C(=O)c2cc3cc(Cl)ccc3[nH]2)CC1 | > 0.0438
CC(=O)c1c[nH]c(C(=O)NCc2cccc(C(F)(F)F)c2)c1 | 0.0022 (≈ 7.09 µM)
Cc1cccc(C(=O)NCC(=O)OCC(=O)c2ccc(C)s2)c1 | > 0.0497

SMILES | solubility kinetic [mg/mL]
OCC(O)CN1CCCC1 (configuration not stated) | 0.0214 (≈ 147 µM)
CCn1cnnc1SCC(=O)Nc1ccccc1C(=O)NC1CC1 | > 0.0518
N#CCCN(C(=S)NC(=O)C1CCCCC1)c1ccccc1F | > 0.05
NC(=O)C1CCN(C(=O)C2CC(=O)N(c3ccc(F)cc3)C2)CC1 (configuration not stated) | 0.0265 (≈ 79.5 µM)
Cc1cccc(C(=O)NC(C)c2ccc(-n3ccnc3)cc2)c1C (configuration not stated) | 0.043 (≈ 135 µM)
CCOc1ccccc1CNCC1CCCO1.Cl (configuration not stated) | 0.0315
COC(=O)c1ccc(/C=C(\C#N)c2ccccn2)cc1 | 0.0018 (≈ 6.81 µM)
Cc1cc(NC(=O)OC2CCCCC2)ccc1[N+](=O)[O-] | 0.0004 (≈ 1.44 µM)
NC(=O)c1ccc(NCC2CCCO2)c([N+](=O)[O-])c1 (configuration not stated) | > 0.0398
COc1ccc(OC)c(NC(=O)COC(=O)COc2ccc(Nc3ccccc3)cc2)c1 | 0.0157 (≈ 36 µM)
Cc1ccc(C)c(CSC2=NCCN2C(=O)c2cccs2)c1 | 0.001 (≈ 3.03 µM)
CCc1nc2ccccc2c(=O)n1-c1ccccc1OC | > 0.042
COc1ccc(N2C(=O)NC3CC2(C)Oc2ccccc23)cc1 (configuration not stated) | 0.0444 (≈ 143 µM)
COc1cccc(Nc2nc(-c3sc(C)nc3C)cs2)c1 | 0.0003 (≈ 0.945 µM)
CC1Cc2ccccc2N1C1=CC(=O)CCC1 (configuration not stated) | > 0.0341
CC(c1ccccc1)n1c(S(=O)(=O)O)nc2ccccc21 (configuration not stated) | 0.0437 (≈ 145 µM)
COc1ccc(C2C(C(C)=O)=C(C)Nc3ncnn32)c(OC)c1OC (configuration not stated) | > 0.0517
CC1(C)CC(NC(=O)c2ccc(Cl)cc2)CC(C)(C)N1 | > 0.0442
CC(Sc1ncccn1)C(=O)N1CCc2ccccc21 (configuration not stated) | 0.0333 (≈ 117 µM)
CCOc1cccc(Nc2ccc([N+](=O)[O-])cn2)c1 | 0.0024 (≈ 9.26 µM)
Cn1c(=O)c2cnc(-c3ccc(C(F)(F)F)cc3)nc2n(C)c1=O | < 0.0002
N#Cc1c(C(F)(F)F)cc(-c2cccs2)nc1SCC(=O)O | 0.0461 (≈ 134 µM)
